Measurements from patent US20230146675A1, “PYRIMIDO[5,4-d]PYRIMIDINE DERIVATIVES AS ENT INHIBITORS FOR THE TREATMENT OF CANCERS, AND COMBINATION THEREOF WITH ADENOSINE RECEPTOR ANTAGONISTS” (ITEOS BELGIUM SA, priority 2020, published 2023).

Target: T1, human ENT1 (Homo sapiens, UniProt Q99808)
T1 sequence (Q99808 1-456): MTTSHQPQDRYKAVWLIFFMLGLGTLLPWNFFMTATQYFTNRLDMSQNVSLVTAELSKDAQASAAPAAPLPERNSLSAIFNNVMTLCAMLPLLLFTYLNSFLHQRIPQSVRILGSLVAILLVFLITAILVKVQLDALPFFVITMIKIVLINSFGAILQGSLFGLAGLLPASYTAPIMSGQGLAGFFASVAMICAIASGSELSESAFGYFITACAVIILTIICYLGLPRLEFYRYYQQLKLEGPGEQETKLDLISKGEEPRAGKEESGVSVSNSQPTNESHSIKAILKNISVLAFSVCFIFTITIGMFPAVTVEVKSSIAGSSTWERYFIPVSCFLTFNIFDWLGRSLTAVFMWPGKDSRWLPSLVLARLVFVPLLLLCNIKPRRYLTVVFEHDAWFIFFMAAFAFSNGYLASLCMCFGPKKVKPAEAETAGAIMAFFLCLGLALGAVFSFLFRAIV
Test: ENT1 binding assay (competition with Sahenta-DY647 on JAR cells)
Set-up: JAR cells expressing ENT1 were bought from ATCC; host or cells: JAR cells
Conditions: binned IC50
In short: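 JAR cells were incubated with test compounds and the fluorescent ligand Sahenta-DY647 in competition. Plates were washed twice by centrifugation (4 min, 400 rcf, 4 °C). Binding potency was derived from the final fluorescence.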

Row | Compound | IC50
1 | COCCN(CCOC)c1nc(N2CCC(OC)CC2)c2nc(N(CCOC)CCOC)nc(NCCCNS(C)(=O)=O)c2n1 [Compound 180, N-(3-((2,6-bis(bis(2-methoxyethyl)amino)-8-(4-methoxypiperidin-1-yl)pyrimido[5,4-d]pyrimidin-4-yl)amino)propyl)methanesulfonamide] | 500 to 1000 nM
2 | COCCN(CCOC)c1nc(N2CCC(OC)CC2)c2nc(N(CCOC)CCOC)nc(NCCCc3ccccn3)c2n1 [Compound 177, N2,N2,N6,N6-tetrakis(2-methoxyethyl)-8-(4-methoxypiperidin-1-yl)-N4-(3-(pyridin-2-yl)propyl)pyrimido[5,4-d]pyrimidine-2,4,6-triamine] | 500 to 1000 nM
3 | COCCN(CCOC)c1nc(N2CCC(OC)CC2)c2nc(N(CCOC)CCOC)nc(NCc3ccnc(N)c3)c2n1 [Compound 147, N4-((2-aminopyridin-4-yl)methyl)-N2,N2,N6,N6-tetrakis(2-methoxyethyl)-8-(4-methoxypiperidin-1-yl)pyrimido[5,4-d]pyrimidine-2,4,6-triamine] | 500 to 1000 nM
4 | COCCN(CCOC)c1nc(N2CCN(c3ccc(C#N)cn3)CC2)c2nc(N(CCOC)CCOC)nc(N3CCC(OC)CC3)c2n1 [Compound 124, 6-(4-(2,6-bis(bis(2-methoxyethyl)amino)-8-(4-methoxypiperidin-1-yl)pyrimido[5,4-d]pyrimidin-4-yl)piperazin-1-yl)nicotinonitrile] | 100 to 500 nM
5 | COCCN(CCOC)c1nc(N2CCC(OC)CC2)c2nc(N(CCOC)CCOC)nc(N(C)C)c2n1 [Compound 67, N2,N2,N6,N6-tetrakis(2-methoxyethyl)-8-(4-methoxypiperidin-1-yl)-N4,N4-dimethylpyrimido[5,4-d]pyrimidine-2,4,6-triamine] | 500 to 1000 nM
6 | COCCN(CCOC)c1nc(N2CCC(OC)CC2)c2nc(N(CCOC)CCOC)nc(N(C)Cc3cccc(OC(F)(F)F)c3)c2n1 [Compound 231, N2,N2,N6,N6-tetrakis(2-methoxyethyl)-8-(4-methoxypiperidin-1-yl)-N4-methyl-N4-(3-(trifluoromethoxy)benzyl)pyrimido[5,4-d]pyrimidine-2,4,6-triamine] | 100 to 500 nM
7 | CCCNc1nc(N(CCOC)CCOC)nc2c(N3CCN(C)C(=O)C3)nc(N(CCOC)CCOC)nc12 [Compound 214, 4-(2,6-bis(bis(2-methoxyethyl)amino)-8-(propylamino)pyrimido[5,4-d]pyrimidin-4-yl)-1-methylpiperazin-2-one] | 100 to 500 nM
8 | COCCN(CCOC)c1nc(N2CCC(OC)CC2)c2nc(N(CCOC)CCOCCCN3CCOCC3)nc(N3CCC(OC)CC3)c2n1 [Compound 44, N2,N2,N6-tris(2-methoxyethyl)-4,8-bis(4-methoxypiperidin-1-yl)-N6-(2-(3-morpholinopropoxy)ethyl)pyrimido[5,4-d]pyrimidine-2,6-diamine] | 500 to 1000 nM
9 | COCCN(CCOC)c1nc(N2CCN(c3ncccn3)CC2)c2nc(N(CCOC)CCOC)nc(N3CCC(OC)CC3)c2n1 [Compound 119, N2,N2,N6,N6-tetrakis(2-methoxyethyl)-4-(4-methoxypiperidin-1-yl)-8-(4-(pyrimidin-2-yl)piperazin-1-yl)pyrimido[5,4-d]pyrimidine-2,6-diamine] | 500 to 1000 nM
10 | COCCN(CCOC)c1nc(N2CC(C)(O)C2)c2nc(N(CCOC)CCOC)nc(N3CCC(OC)CC3)c2n1 [Compound 101, 1-(2,6-bis(bis(2-methoxyethyl)amino)-8-(4-methoxypiperidin-1-yl)pyrimido[5,4-d]pyrimidin-4-yl)-3-methylazetidin-3-ol] | 500 to 1000 nM

More lines, now with the values ahead:

Row | IC50 | Compound
11 | 100 to 500 nM | COCCN(CCOC)c1nc(N2CCC(C)(OC)CC2)c2nc(N(CCOC)CCOC)nc(N3CCC(C)(OC)CC3)c2n1 [Compound 201, 4,8-bis(4-methoxy-4-methylpiperidin-1-yl)-N2,N2,N6,N6-tetrakis(2-methoxyethyl)pyrimido[5,4-d]pyrimidine-2,6-diamine]
12 | < 100 nM | COCCN(CCOC)c1nc(N2CCN(C)C(=O)C2)c2nc(N(CCOC)CCOC)nc(N(C)Cc3ccc(F)c(F)c3)c2n1 [Compound 239, 4-(2,6-bis(bis(2-methoxyethyl)amino)-8-((3,4-difluorobenzyl)(methyl)amino)pyrimido[5,4-d]pyrimidin-4-yl)-1-methylpiperazin-2-one]
13 | < 100 nM | CCOCCN(CCOCC)c1nc(N2CCN(C)C(=O)C2)c2nc(N(CCOCC)CCOCC)nc(N(C)Cc3ccccc3)c2n1 [Compound 232, 4-(8-(benzyl(methyl)amino)-2,6-bis(bis(2-ethoxyethyl)amino)pyrimido[5,4-d]pyrimidin-4-yl)-1-methylpiperazin-2-one]
14 | 100 to 500 nM | COCCN(CCOC)c1nc(N2CCn3cncc3C2)c2nc(N(CCOC)CCOC)nc(N3CCN(C)C(=O)C3)c2n1 [Compound 250, 4-(2,6-bis(bis(2-methoxyethyl)amino)-8-(5,6-dihydroimidazo[1,5-a]pyrazin-7(8H)-yl)pyrimido[5,4-d]pyrimidin-4-yl)-1-methylpiperazin-2-one]
15 | < 100 nM | COCCN(CCOC)c1nc(N2CCC(OC)CC2)c2nc(N(CCOC)CCOC)nc(NCc3cccc(OC)c3)c2n1 [Compound 48, N4-(3-methoxybenzyl)-N2,N2,N6,N6-tetrakis(2-methoxyethyl)-8-(4-methoxypiperidin-1-yl)pyrimido[5,4-d]pyrimidine-2,4,6-triamine]
16 | < 100 nM | COCCN(CCCS(C)(=O)=O)c1nc(N2CCN(C)C(=O)C2)c2nc(N(CCOC)CCOC)nc(N3CCC(OC)CC3)c2n1 [Compound 289, 4-(6-(bis(2-methoxyethyl)amino)-2-((2-methoxyethyl)(3-(methylsulfonyl)propyl)amino)-8-(4-methoxypiperidin-1-yl)pyrimido[5,4-d]pyrimidin-4-yl)-1-methylpiperazin-2-one]
17 | < 100 nM | COCCN(CCO)c1nc(N2CCN(C)C(=O)C2)c2nc(N(CCOC)CCOC)nc(N3CCC(OC)CC3)c2n1 [Compound 275, 4-(6-(bis(2-methoxyethyl)amino)-2-((2-hydroxyethyl)(2-methoxyethyl)amino)-8-(4-methoxypiperidin-1-yl)pyrimido[5,4-d]pyrimidin-4-yl)-1-methylpiperazin-2-one]
18 | 100 to 500 nM | COCCN(CCOC)c1nc(N2CCN(C)C(=O)C2)c2nc(N(CCOC)CCOC)nc(N3CCN(c4ncn(C)n4)CC3)c2n1 [Compound 216, 4-(2,6-bis(bis(2-methoxyethyl)amino)-8-(4-(1-methyl-1H-1,2,4-triazol-3-yl)piperazin-1-yl)pyrimido[5,4-d]pyrimidin-4-yl)-1-methylpiperazin-2-one]
19 | 100 to 500 nM | COCCN(CCOC)c1nc(N(C)C2CCCC2)c2nc(N(CCOC)CCOC)nc(N3CCC(OC)CC3)c2n1 [Compound 166, N4-cyclopentyl-N2,N2,N6,N6-tetrakis(2-methoxyethyl)-8-(4-methoxypiperidin-1-yl)-N4-methylpyrimido[5,4-d]pyrimidine-2,4,6-triamine]
20 | 100 to 500 nM | COCCN(CCOC)c1nc(N2CCCN(C(C)=O)CC2)c2nc(N(CCOC)CCOC)nc(N3CCC(OC)CC3)c2n1 [Compound 98, 1-(4-(2,6-bis(bis(2-methoxyethyl)amino)-8-(4-methoxypiperidin-1-yl)pyrimido[5,4-d]pyrimidin-4-yl)-1,4-diazepan-1-yl)ethanone]
21 | < 100 nM | COCCN(CCOC)c1nc(N2CCN(C)C(=O)C2)c2nc(N(CCOC)CCOC)nc(N(C)Cc3cccc(C#N)c3)c2n1 [Compound 237, 3-(((2,6-bis(bis(2-methoxyethyl)amino)-8-(4-methyl-3-oxopiperazin-1-yl)pyrimido[5,4-d]pyrimidin-4-yl)(methyl)amino)methyl)benzonitrile]
